Experimental data from PubChem BioAssay (NCI).
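48-hour exposure; five concentrations; linearly interpolated endpoints. At the TGI there is no net growth.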

Assays:
Test in all cases: inhibition of tumour cell growth, NCI panel, 48 h
NCI-H460 lung = tested on: NCI-H460 lung
TK-10 renal = tested on: TK-10 renal
OVCAR-3 ovarian = tested on: OVCAR-3 ovarian
CCRF-CEM leukemia = tested on: CCRF-CEM leukemia
UACC-62 melanoma = tested on: UACC-62 melanoma
SNB-19 CNS = tested on: SNB-19 CNS
IGROV1 ovarian = tested on: IGROV1 ovarian
EKVX NSCLC = tested on: EKVX NSCLC
HCT-116 colon = tested on: HCT-116 colon
DLD-1 colon = tested on: DLD-1 colon
COLO 205 colon = tested on: COLO 205 colon
SW-620 colon = tested on: SW-620 colon
NCI-H226 lung = tested on: NCI-H226 lung
SF-268 CNS = tested on: SF-268 CNS
UACC-257 melanoma = tested on: UACC-257 melanoma
SK-MEL-28 melanoma = tested on: SK-MEL-28 melanoma
OVCAR-5 ovarian = tested on: OVCAR-5 ovarian
PC-3 prostate = tested on: PC-3 prostate
NCI/ADR-RES ovarian = tested on: NCI/ADR-RES ovarian
MDA-MB-435 = tested on: MDA-MB-435

| Compound | TGI (NCI-H460 lung) | TGI (TK-10 renal) | TGI (OVCAR-3 ovarian) | TGI (CCRF-CEM leukemia) | TGI (UACC-62 melanoma) | TGI (SNB-19 CNS) | TGI (IGROV1 ovarian) | TGI (EKVX NSCLC) | TGI (HCT-116 colon) | TGI (DLD-1 colon) | TGI (COLO 205 colon) | TGI (SW-620 colon) | TGI (NCI-H226 lung) | TGI (SF-268 CNS) | TGI (UACC-257 melanoma) | TGI (SK-MEL-28 melanoma) | TGI (OVCAR-5 ovarian) | TGI (PC-3 prostate) | TGI (NCI/ADR-RES ovarian) | TGI (MDA-MB-435) |
| --- | --- | --- | --- | --- | --- | --- | --- | --- | --- | --- | --- | --- | --- | --- | --- | --- | --- | --- | --- | --- |
| C/C=C1\C=C(OC)CN(CCc2c[nH]c3ccccc23)C1 | > 100 µM | > 100 µM | > 100 µM | > 100 µM | > 100 µM | > 100 µM | > 100 µM | > 100 µM | > 100 µM | > 100 µM | > 100 µM | > 100 µM | > 100 µM | 95.5 µM | > 100 µM | – | – | – | – | – |
| Cc1nc(C(N)=S)sc1C(=O)CC(=O)C(=O)Nc1ccccc1[N+](=O)[O-] | > 100 µM | > 100 µM | > 100 µM | > 100 µM | > 100 µM | > 100 µM | > 100 µM | > 100 µM | > 100 µM | > 100 µM | – | > 100 µM | – | > 100 µM | > 100 µM | > 100 µM | > 100 µM | – | – | – |
| COc1ccc(N2C(=O)[C@H]3[C@H]4CC(C(C)(C)C)CC[C@H]4c4c(n(C)c5ccccc45)[C@H]3C2=O)cc1 (stereo not given in full) | > 63.8 µM | > 100 µM | > 100 µM | > 100 µM | > 100 µM | > 100 µM | > 100 µM | > 46.4 µM | > 100 µM | > 100 µM | > 100 µM | > 100 µM | > 100 µM | > 100 µM | > 100 µM | > 100 µM | > 100 µM | > 100 µM | > 100 µM | > 100 µM |
| Cc1ccc(/C(O)=C/c2nc3c(nc2NC24CC5CC(CC(C5)C2)C4)c(=O)oc2ccccc23)cc1 | > 100 µM | > 100 µM | > 100 µM | > 100 µM | > 100 µM | > 100 µM | > 100 µM | > 100 µM | > 100 µM | > 100 µM | > 100 µM | > 100 µM | > 100 µM | > 100 µM | > 100 µM | > 100 µM | > 100 µM | – | – | – |
| CCOC(=O)N1c2c(ccn2C)-c2ccn(C)c2N1C(=O)OCC | 49.3 µM | – | 27.1 µM | 13.8 µM | 31.3 µM | – | 52.4 µM | – | 29.4 µM | 29.5 µM | 57.1 µM | 28.6 µM | 37.5 µM | 38.7 µM | – | – | 35.5 µM | – | – | – |
| COc1c(OC(C)C)c(OC(C)C)c2oc(=O)n3c2c1C(c1ccccc1-n1c(C)ccc1C)C=C3 (stereo not given) | > 100 µM | > 100 µM | > 100 µM | > 100 µM | > 100 µM | > 100 µM | > 100 µM | 95.4 µM | > 100 µM | – | > 100 µM | > 100 µM | 38.3 µM | > 100 µM | > 100 µM | > 100 µM | > 100 µM | > 100 µM | > 100 µM | > 100 µM |
| Cc1cc(C)nc(NS(=O)(=O)c2ccc(NNc3c4ccccc4nc4c(C(=O)Nc5ccc(S(N)(=O)=O)cc5)cccc34)cc2)n1 | > 100 µM | > 100 µM | > 100 µM | 83.6 µM | > 100 µM | > 100 µM | > 100 µM | > 100 µM | > 100 µM | – | > 100 µM | > 100 µM | > 100 µM | > 100 µM | > 100 µM | 92.3 µM | > 100 µM | 32.9 µM | > 100 µM | > 100 µM |
| COc1cccc2c1CCc1cc3c(N)nc(N)nc3nc1-2 | 25 µM | 47.3 µM | 16 µM | 7.02 µM | 16.7 µM | 26.7 µM | 17.2 µM | 15.3 µM | 8.09 µM | – | 29.8 µM | 25 µM | 43.2 µM | 42.4 µM | 31.4 µM | 11 µM | 21.3 µM | 18.3 µM | 46.7 µM | 27.4 µM |
| O=C1c2ccccc2C(=O)N1CC1S(=O)(=O)OCCOS1(=O)=O | > 100 µM | > 100 µM | > 100 µM | > 100 µM | > 100 µM | > 100 µM | > 100 µM | > 100 µM | > 100 µM | – | > 100 µM | > 100 µM | > 100 µM | > 100 µM | > 100 µM | > 100 µM | > 100 µM | > 100 µM | > 100 µM | > 100 µM |
| NC(=O)c1cc2ccc(O)cc2o/c1=N/NC(=O)c1ccccc1 | > 100 µM | > 100 µM | > 100 µM | > 100 µM | > 100 µM | > 100 µM | > 100 µM | > 100 µM | > 100 µM | – | > 100 µM | > 100 µM | > 100 µM | > 100 µM | > 100 µM | > 100 µM | > 100 µM | > 100 µM | > 100 µM | > 100 µM |
| CC1=CC[C@H](C(C)C)C(C(O)[C@@H](C)O[Si](c2ccccc2)(c2ccccc2)C(C)(C)C)C1=O (stereo not given in full) | 37.2 µM | 31.7 µM | 35.5 µM | 63.8 µM | 33.6 µM | 33.5 µM | 64.8 µM | 28.9 µM | 28.7 µM | – | 47.6 µM | 65.5 µM | 44 µM | 54.8 µM | 31.5 µM | > 100 µM | 36.2 µM | 33.6 µM | 38.1 µM | 51.3 µM |
| Oc1cc2c3c(c1)CCCN3CCC2 | > 10 µM | > 10 µM | > 10 µM | > 10 µM | > 10 µM | > 10 µM | > 10 µM | > 10 µM | > 10 µM | – | > 10 µM | > 10 µM | > 10 µM | > 10 µM | > 10 µM | > 10 µM | > 10 µM | > 10 µM | > 10 µM | > 10 µM |
| COC(=O)C1=CSC2(S1)C(C(=O)OC)=CSc1c2ssc1=O (stereo not given) | 24.5 µM | 6.13 µM | 3.55 µM | 2.47 µM | 4.16 µM | 16.1 µM | 2.9 µM | 14.5 µM | 3.16 µM | – | 4.03 µM | 2.93 µM | 44.9 µM | 8.89 µM | 4 µM | 5.23 µM | 21.9 µM | 6.03 µM | 8.35 µM | 4.34 µM |
| COc1cccc(/C=C2\CCCc3ccccc3C2=O)c1 | 34.2 µM | 82.6 µM | 34 µM | 35.3 µM | 25.8 µM | 26.8 µM | 46.3 µM | 50.2 µM | 27.9 µM | – | 35.6 µM | 35.5 µM | 49.3 µM | 23 µM | 33.2 µM | 41.1 µM | 38 µM | 38.6 µM | 53.3 µM | 30.1 µM |
